A short description of the series: Clinical trial of breast ductal lavage with topical, subcutaneous and/or intraductal anesthesia; patient-recorded pain and post-procedure notes. The format is in vivo, human.

Structures are written as SMILES.

Experimental: A clinical trial was conducted at several different clinical sites by several different physician practitioners. Sometimes the procedures were conducted by practitioners using topical application of anesthetic, subcutaneous anesthesia injection, sometimes using intraductal anesthesia infusion and sometimes all three. […] Apply EMLATM cream (topical anesthetic cream) to the nipple and areola as described in the package insert. […] Dekeratinize the nipple using gauze and a small amount of Omniprep® paste (dekeratinizing agent) or […] gel. Clean the nipple and areola with alcohol and gauze. […] Before attempting ductal catheterization, identify the ductal orifice under magnification, by using the breast aspirator and/or by gently squeezing on the nipple to yield discharge. Use of an incandescent lamp to warm the nipple may help relax the sphincter, thus making cannulation of the duct easier. […] Prepare the nipple and areola with a suitable disinfectant and perform nipple field block as needed. […] Open the catheter package. For intraductal administration of anesthetic, attach anesthetic syringe to inflow (i.e., lower) port and prime the tubing until fluid is expressed through the catheter body and outflow port; leave the syringe attached. […] Ensure that approximately 1 cm of the guidewire protrudes from the catheter tip. Under magnification assistance, if necessary, introduce the pre-seated guidewire/catheter unit into the desired ductal orifice to confirm the location and orientation of the duct. Advance the catheter gradually until the catheter is seated; remove the wire completely. […] Crimp the outflow tubing to prevent return of the anesthetic into the inflow tube. Administer approximately 1 cc of anesthetic through the inflow port (i.e., lower port). Administer more anesthetic as indicated. Disconnect the syringe and set aside for later use. Twist the plunger of a sterile 10 cc syringe to free the seal and attach the syringe to the outflow port. […] Connect saline filled syringe to the inflow (i.e., lower) port. The catheter is now ready for use. […] When Performing saline ductal lavage (i.e. fluid infusion and return): Crimp the outflow tubing to prevent early return into the outflow syringe. Using a 10 cc syringe filled with saline, gradually infuse saline in 0.5 cc increments, or until there is slight resistance or some discomfort (typically 2-3 mLs). Release the crimp on the outflow tubing. Massage the breast towards the nipple with both hands for 30 seconds, especially over the infused duct, taking care not to dislodge the catheter. Cloudy fluid and/or small air bubbles may collect in the catheter body, indicating fluid flow. Crimp the inflow tubing and apply suction to the outflow tubing. […]

On to `CCN(CC)CC(=O)Nc1c(C)cccc1C` [lidocaine], for which, under “conclusion drawn from Table I”, the “lavage pain, intraductal administration compared to subcutaneous injection of anesthetic” value was “no greater”. Also, the “pain upon intraductal administration of anesthetic” value (in some cases, particularly practitioner RP) is on record as “very low”. Further, the post procedure notes entry (patient feedback a day to two weeks after procedure, intraductal lidocaine only) was “pain”. In addition, the bruising entry (practitioner PS, routine subcutaneous administration in a field block) was “highest amount of bruising”.

Values taken from patent US20040204499A1, “Preparation for breast duct fluid collection” (priority 2000, published 2004).
